According to PubChem BioAssay AID252 (DTP/NCI, 2004):
Where “and” joins values, the source holds several entries; their conditions need not be identical. Identical values can stand only once. Inconclusive results and toxic doses are left out. The calls were made as follows: active = survival T/C of 150% or more; inactive = T/C below 125% in these data.

Test system: BDF1 mice, intracerebral L1210 leukemia, survival T/C
Test: NCI In Vivo Anticancer Drug Screen. Data for tumor model L1210 Leukemia (intracerebral) in B6D2F1 (BDF1) mice
Details: endpoint: mean survival time, higher = longer survival
Summary of the method: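 Readout is the T/C ratio: survival of compound-treated animals over that of vehicle-treated controls, in mice bearing transplantable tumour.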

Measured: T/C

CC[C@H]1CN2CCc3cc(OC)c(OC)cc3[C@@H]2C[C@@H]1C[C@H]1NCCc2cc(OC)c(OC)cc21
inactive: dose: 1.0 mg/kg/injection, schedule: Q01DX005 (ip), vehicle: saline 101 % of control | dose: 1.0 mg/kg/injection, schedule: Q01DX009 (ip), vehicle: saline 100 % of control | dose: 2.0 mg/kg/injection, schedule: Q01DX005 (ip), vehicle: saline 100 % of control | dose: 2.0 mg/kg/injection, schedule: Q01DX009 (ip), vehicle: saline 98 % of control | dose: 2.0 mg/kg/injection, schedule: Q04DX003 (ip), vehicle: saline 101 % of control | dose: 4.0 mg/kg/injection, schedule: Q01DX005 (ip), vehicle: saline 98 % of control | dose: 4.0 mg/kg/injection, schedule: Q01DX009 (ip), vehicle: saline 101 % of control | dose: 4.0 mg/kg/injection, schedule: Q04DX003 (ip), vehicle: saline 101 % of control | dose: 4.0 mg/kg/injection, schedule: Q08DX002 (ip), vehicle: saline 100 % of control | dose: 8.0 mg/kg/injection, schedule: Q01DX005 (ip), vehicle: saline 98 % of control | dose: 8.0 mg/kg/injection, schedule: Q01DX009 (ip), vehicle: saline 100 % of control | dose: 8.0 mg/kg/injection, schedule: Q04DX003 (ip), vehicle: saline 96 % of control | dose: 8.0 mg/kg/injection, schedule: Q08DX002 (ip), vehicle: saline 97 % of control | dose: 16.0 mg/kg/injection, schedule: Q01DX005 (ip), vehicle: saline 87 % of control | dose: 16.0 mg/kg/injection, schedule: Q04DX003 (ip), vehicle: saline 104 % of control | dose: 16.0 mg/kg/injection, schedule: Q08DX002 (ip), vehicle: saline 100 % of control | dose: 32.0 mg/kg/injection, schedule: Q04DX003 (ip), vehicle: saline 106 % of control | dose: 32.0 mg/kg/injection, schedule: Q08DX002 (ip), vehicle: saline 112 % of control

O=C(NO)c1ccncc1
inactive: dose: 100.0 mg/kg/injection, schedule: Q01DX009 (ip), vehicle: water 91 % of control | dose: 200.0 mg/kg/injection, schedule: Q01DX009 (ip), vehicle: water 92 % of control | dose: 400.0 mg/kg/injection, schedule: Q01DX009 (ip), vehicle: water 86 % of control | dose: 600.0 mg/kg/injection, schedule: Q01DX009 (ip), vehicle: water 89 % of control

O=NN(CCCl)C(=O)NC1CCCC1
active: dose: 18.0 mg/kg/injection, schedule: Q01DX001 (ip), vehicle: saline 170 % of control | dose: 19.0 mg/kg/injection, schedule: Q01DX001 (ip), vehicle: saline 163 % of control and 234 % of control | dose: 25.0 mg/kg/injection, schedule: Q01DX001 (ip), vehicle: saline 157 % of control | dose: 28.0 mg/kg/injection, schedule: Q01DX001 (ip), vehicle: saline 264 % of control | dose: 30.0 mg/kg/injection, schedule: Q01DX001 (ip), vehicle: saline 157 % of control and 190 % of control | dose: 38.0 mg/kg/injection, schedule: Q01DX001 (ip), vehicle: saline 231 % of control and 244 % of control | dose: 42.0 mg/kg/injection, schedule: Q01DX001 (ip), vehicle: saline 250 % of control | dose: 44.0 mg/kg/injection, schedule: Q01DX001 (ip), vehicle: saline 234 % of control | dose: 50.0 mg/kg/injection, schedule: Q01DX001 (ip), vehicle: saline 333 % of control | dose: 64.0 mg/kg/injection, schedule: Q01DX001 (ip), vehicle: saline 278 % of control | dose: 67.0 mg/kg/injection, schedule: Q01DX001 (ip), vehicle: saline 209 % of control | dose: 75.0 mg/kg/injection, schedule: Q01DX001 (ip), vehicle: saline 431 % of control and 485 % of control | dose: 100.0 mg/kg/injection, schedule: Q01DX001 (ip), vehicle: saline 257 % of control and 284 % of control | dose: 150.0 mg/kg/injection, schedule: Q01DX001 (ip), vehicle: saline 273 % of control and 342 % of control and 363 % of control
inactive: dose: 220.0 mg/kg/injection, schedule: Q01DX001 (ip), vehicle: saline 101 % of control

OC(CBr)C(O)C(O)C(O)CBr (stereo not given)
inactive: dose: 25.0 mg/kg/injection, schedule: Q01DX009 (ip), vehicle: steriod suspending solution 108 % of control | dose: 50.0 mg/kg/injection, schedule: Q01DX009 (ip), vehicle: steriod suspending solution 121 % of control | dose: 100.0 mg/kg/injection, schedule: Q01DX009 (ip), vehicle: steriod suspending solution 117 % of control
